Reference: patent US20200017495A1, “NOVEL HETEROCYCLIC COMPOUNDS AND THEIR USE IN PREVENTING OR TREATING BACTERIAL INFECTIONS” (priority 2017, published 2020)

Legend:
[1] = tested on: Klebsiella oxytoca (KOX) isolates; experiment: MIC of compounds alone and combined with antibacterials, broth microdilution (CLSI); format: cell-based
Method in brief: (§1)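 Log-phase isolates were inoculated at a final 5.10^5 CFU/mL in cation-adjusted Mueller-Hinton broth and incubated 16-20 h at 35° C in ambient air. MIC was the lowest concentration preventing visible growth; for combinations, the antibacterial MIC was read at each compound concentration.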

[2] = tested on: Escherichia coli (ECO) isolates; experiment: as above; format: cell-based
Method in brief: as §1

C=CC1=C(C(=O)O)N2C(=O)[C@@H](NC(=O)/C(=N\OCC(=O)O)c3csc(N)n3)[C@H]2SC1 [FIX, Cefixime]
MIC ATB in combination ([1]; KOX UFR21, AF2 @ 8 μg/mL): 2 mg/L | MIC ATB in combination ([1]; KOX UFR21, AF3 @ 8 μg/mL): 4 mg/L | MIC ATB in combination ([1]; KOX UFR173, AF2 @ 8 μg/mL): <=0.25 μg/mL | MIC ATB in combination ([1]; KOX UFR173, AF3 @ 8 μg/mL): <=0.25 μg/mL | MIC ATB in combination ([1]; KOX UFR173, CLA @ 4 μg/mL): 4 mg/L | MIC ATB in combination ([1]; KOX UFR223, AF2 @ 8 μg/mL): <0.25 mg/L | MIC ATB in combination ([1]; KOX UFR223, AF3 @ 8 μg/mL): <0.25 mg/L | MIC ATB in combination ([1]; KOX UFR223, CLA @ 4 μg/mL): <=0.25 μg/mL | MIC ATB in combination ([1]; KOX UFR224, AF2 @ 8 μg/mL): <0.25 mg/L | MIC ATB in combination ([1]; KOX UFR224, AF3 @ 8 μg/mL): <0.25 mg/L | MIC ATB in combination ([1]; KOX UFR224, CLA @ 4 μg/mL): 8 mg/L | MIC ([1]; strain KOX UFR21, genotype TEM-1, CTX-M-15, OXA-48): >128 mg/L | MIC ([1]; strain KOX UFR173, genotype OXY2-2): 16 mg/L | MIC ([1]; strain KOX UFR223, genotype SHV-11, OXA-48): <=0.125 μg/mL | MIC ([1]; strain KOX UFR224, genotype CTX-M-15, OXA-48): >128 mg/L | MIC ATB in combination ([2]; ECO 4133, AF2 @ 8 μg/mL): <0.25 mg/L | MIC ATB in combination ([2]; ECO 4133, AF3 @ 8 μg/mL): <0.25 mg/L | MIC ATB in combination ([2]; ECO 4133, CLA @ 4 μg/mL): 0.5 mg/L | MIC ATB in combination ([2]; ECO 5302, AF2 @ 8 μg/mL): <0.25 mg/L | MIC ATB in combination ([2]; ECO 5302, AF3 @ 8 μg/mL): <0.25 mg/L | MIC ATB in combination ([2]; ECO 5302, CLA @ 4 μg/mL): 0.5 mg/L | MIC ATB in combination ([2]; ECO 131119, AF2 @ 8 μg/mL): <0.25 mg/L | MIC ATB in combination ([2]; ECO 131119, AF3 @ 8 μg/mL): <0.25 mg/L | MIC ATB in combination ([2]; ECO 131119, CLA @ 4 μg/mL): <=0.25 μg/mL | MIC ATB in combination ([2]; ECO 180070, AF2 @ 8 μg/mL): <0.25 mg/L | MIC ATB in combination ([2]; ECO 180070, AF3 @ 8 μg/mL): <0.25 mg/L | MIC ATB in combination ([2]; ECO 180070, CLA @ 4 μg/mL): 2 mg/L | MIC ATB in combination ([2]; ECO 190314, AF2 @ 8 μg/mL): <0.25 mg/L | MIC ATB in combination ([2]; ECO 190314, AF3 @ 8 μg/mL): <0.25 mg/L | MIC ATB in combination ([2]; ECO 190314, CLA @ 4 μg/mL): 2 mg/L | MIC ATB in combination ([2]; ECO 190317, AF2 @ 8 μg/mL): <0.25 mg/L | MIC ATB in combination ([2]; ECO 190317, AF3 @ 8 μg/mL): <0.25 mg/L | MIC ATB in combination ([2]; ECO 190317, CLA @ 4 μg/mL): 0.5 mg/L | MIC ATB in combination ([2]; ECO 190457, AF2 @ 8 μg/mL): <0.25 mg/L | MIC ATB in combination ([2]; ECO 190457, AF3 @ 8 μg/mL): <0.25 mg/L | MIC ATB in combination ([2]; ECO 190457, CLA @ 4 μg/mL): 0.5 mg/L | MIC ATB in combination ([2]; ECO 190549, AF2 @ 8 μg/mL): <0.25 mg/L | MIC ATB in combination ([2]; ECO 190549, AF3 @ 8 μg/mL): <0.25 mg/L | MIC ATB in combination ([2]; ECO 190549, CLA @ 4 μg/mL): 0.5 mg/L | MIC ATB in combination ([2]; ECO 200159, AF2 @ 8 μg/mL): <0.25 mg/L | MIC ATB in combination ([2]; ECO 200159, AF3 @ 8 μg/mL): <0.25 mg/L | MIC ATB in combination ([2]; ECO 200159, CLA @ 4 μg/mL): <=0.25 μg/mL | MIC ATB in combination ([2]; ECO 200259, AF2 @ 8 μg/mL): <0.25 mg/L | MIC ATB in combination ([2]; ECO 200259, AF3 @ 8 μg/mL): <0.25 mg/L | MIC ATB in combination ([2]; ECO 200259, CLA @ 4 μg/mL): <=0.25 μg/mL | MIC ATB in combination ([2]; ECO 200344, AF2 @ 8 μg/mL): <0.25 mg/L | MIC ATB in combination ([2]; ECO 200344, AF3 @ 8 μg/mL): <=0.25 μg/mL | MIC ATB in combination ([2]; ECO 200344, CLA @ 4 μg/mL): 0.5 mg/L | MIC ATB in combination ([2]; ECO 260096, AF2 @ 8 μg/mL): <=0.25 μg/mL | MIC ATB in combination ([2]; ECO 260096, AF3 @ 8 μg/mL): <=0.25 μg/mL | MIC ATB in combination ([2]; ECO 260096, CLA @ 4 μg/mL): 1 mg/L | MIC ATB in combination ([2]; ECO 260304, AF2 @ 8 μg/mL): <0.25 mg/L | MIC ATB in combination ([2]; ECO 260304, AF3 @ 8 μg/mL): <0.25 mg/L | MIC ATB in combination ([2]; ECO 260304, CLA @ 4 μg/mL): 0.5 mg/L | MIC ATB in combination ([2]; ECO 260508, AF2 @ 8 μg/mL): <0.25 mg/L | MIC ATB in combination ([2]; ECO 260508, AF3 @ 8 μg/mL): <0.25 mg/L | MIC ATB in combination ([2]; ECO 260508, CLA @ 4 μg/mL): 0.5 mg/L | MIC ATB in combination ([2]; ECO RGN238, AF2 @ 8 μg/mL): <0.25 mg/L | MIC ATB in combination ([2]; ECO RGN238, AF3 @ 8 μg/mL): <0.25 mg/L | MIC ATB in combination ([2]; ECO RGN238, CLA @ 4 μg/mL): <=0.25 μg/mL | MIC ATB in combination ([2]; ECO UFR15, AF2 @ 8 μg/mL): <0.25 mg/L | MIC ATB in combination ([2]; ECO UFR15, AF3 @ 8 μg/mL): <0.25 mg/L | MIC ATB in combination ([2]; ECO UFR15, CLA @ 4 μg/mL): 1 mg/L | MIC ATB in combination ([2]; ECO UFR16, AF2 @ 8 μg/mL): <0.25 mg/L | MIC ATB in combination ([2]; ECO UFR16, AF3 @ 8 μg/mL): <0.25 mg/L | MIC ATB in combination ([2]; ECO UFR16, CLA @ 4 μg/mL): 4 mg/L | MIC ATB in combination ([2]; ECO UFR17, AF2 @ 8 μg/mL): >128 mg/L | MIC ATB in combination ([2]; ECO UFR17, AF3 @ 8 μg/mL): >128 mg/L | MIC ATB in combination ([2]; ECO UFR17, CLA @ 4 μg/mL): >128 mg/L | MIC ATB in combination ([2]; ECO UFR18, AF2 @ 8 μg/mL): <0.25 mg/L | MIC ATB in combination ([2]; ECO UFR18, AF3 @ 8 μg/mL): <0.25 mg/L | MIC ATB in combination ([2]; ECO UFR18, CLA @ 4 μg/mL): >128 mg/L | MIC ATB in combination ([2]; ECO UFR19, AF2 @ 8 μg/mL): <0.25 mg/L | MIC ATB in combination ([2]; ECO UFR19, AF3 @ 8 μg/mL): <0.25 mg/L | MIC ATB in combination ([2]; ECO UFR19, CLA @ 4 μg/mL): >128 mg/L | MIC ATB in combination ([2]; ECO UFR32, AF2 @ 8 μg/mL): <0.25 mg/L | MIC ATB in combination ([2]; ECO UFR32, AF3 @ 8 μg/mL): <0.25 mg/L | MIC ATB in combination ([2]; ECO UFR32, CLA @ 4 μg/mL): 1 mg/L | MIC ATB in combination ([2]; ECO UFR39, AF2 @ 8 μg/mL): <0.25 mg/L | MIC ATB in combination ([2]; ECO UFR39, AF3 @ 8 μg/mL): <0.25 mg/L | MIC ATB in combination ([2]; ECO UFR39, CLA @ 4 μg/mL): >128 mg/L | MIC ATB in combination ([2]; ECO UFR41, AF2 @ 8 μg/mL): <0.25 mg/L | MIC ATB in combination ([2]; ECO UFR41, AF3 @ 8 μg/mL): <0.25 mg/L | MIC ATB in combination ([2]; ECO UFR41, CLA @ 4 μg/mL): >128 mg/L | MIC ATB in combination ([2]; ECO UFR45, AF2 @ 8 μg/mL): <0.25 mg/L | MIC ATB in combination ([2]; ECO UFR45, AF3 @ 8 μg/mL): <0.25 mg/L | MIC ATB in combination ([2]; ECO UFR45, CLA @ 4 μg/mL): 32 mg/L | MIC ATB in combination ([2]; ECO UFR52, AF2 @ 8 μg/mL): >128 mg/L | MIC ATB in combination ([2]; ECO UFR52, AF3 @ 8 μg/mL): >128 mg/L | MIC ATB in combination ([2]; ECO UFR52, CLA @ 4 μg/mL): >128 mg/L | MIC ATB in combination ([2]; ECO UFR61O, AF2 @ 8 μg/mL): <=0.25 μg/mL | MIC ATB in combination ([2]; ECO UFR61O, AF3 @ 8 μg/mL): <0.25 mg/L | MIC ATB in combination ([2]; ECO UFR61O, CLA @ 4 μg/mL): 32 mg/L | MIC ATB in combination ([2]; ECO UFR62, AF2 @ 8 μg/mL): <0.25 mg/L | MIC ATB in combination ([2]; ECO UFR62, AF3 @ 8 μg/mL): <0.25 mg/L | MIC ATB in combination ([2]; ECO UFR62, CLA @ 4 μg/mL): 32 mg/L | MIC ATB in combination ([2]; ECO UFR74, AF2 @ 8 μg/mL): <0.25 mg/L | MIC ATB in combination ([2]; ECO UFR74, AF3 @ 8 μg/mL): <0.25 mg/L | MIC ATB in combination ([2]; ECO UFR74, CLA @ 4 μg/mL): >128 mg/L | MIC ATB in combination ([2]; ECO UFR86, AF2 @ 8 μg/mL): 0.5 mg/L | MIC ATB in combination ([2]; ECO UFR86, AF3 @ 8 μg/mL): 0.5 mg/L | MIC ATB in combination ([2]; ECO UFR86, CLA @ 4 μg/mL): 2 mg/L | MIC ATB in combination ([2]; ECO UFR174, AF2 @ 8 μg/mL): <0.25 mg/L | MIC ATB in combination ([2]; ECO UFR174, AF3 @ 8 μg/mL): <0.25 mg/L | MIC ATB in combination ([2]; ECO UFR174, CLA @ 4 μg/mL): 2 mg/L | MIC ATB in combination ([2]; ECO UFR175, AF2 @ 8 μg/mL): <0.25 mg/L | MIC ATB in combination ([2]; ECO UFR175, AF3 @ 8 μg/mL): <=0.25 μg/mL | MIC ATB in combination ([2]; ECO UFR175, CLA @ 4 μg/mL): 16 mg/L | MIC ATB in combination ([2]; ECO UFR176, AF2 @ 8 μg/mL): <0.25 mg/L | MIC ATB in combination ([2]; ECO UFR176, AF3 @ 8 μg/mL): <0.25 mg/L | MIC ATB in combination ([2]; ECO UFR176, CLA @ 4 μg/mL): 32 mg/L
